Reference: patent publication US20220401438A1, “CANCER THERAPEUTIC METHODS” (University Health Network, priority 2021, published 2022)

How the values were obtained:
[1] = tested on: cancer cell lines not having gene mutations identified by the CRISPR screen analysis; assay: In vitro combination of itraconazole with lysosome targeting agents; type: cell-based; settings: for sensitivity of cell lines to itraconazole when treated with the agent: cell lines without the CRISPR-identified mutations
[2] = tested on: TOV1946 stably expressing GFP conjugated TFEB; assay: TFEB nuclear translocation; type: cell-based; settings: CQ 10 μM alone or with Itra 5 μM
Experimental: FIGS. 11A-B. FIG. 11A) Top, analysis of lysosomal pattern by LAMP1 immunofluorescence and relative quantification in TOV21g treated with Itra 5 μM (15)+/−CQ 5 μM (CQ5). Bottom, Analysis of lysosomal function and relative quantification in TOV21g treated as above. FIG. 11B) Analysis and quantification of TFEB nuclear translocation in TOV1946 stably expressing GFP conjugated TFEB and treated with Itra 5 μM (5) +/−CQ 10 μM (CQ10).
Member of the microphtalmia (MiT) family (TFEB, […], TFE3) are transcription factors activated in starvation or lysosomal dysfunction conditions. Once activated, they translocate to the nucleus where they promote the expression of a network of genes related to lysosomal function and biogenesis^50.

[3] = Tissue pharmacokinetic analyses (HPLC-MS/MS) of tumour biopsies; type: in vivo, human; settings: for intratumor concentration (highest): patient HYDRA-005, DL1, on-treatment biopsy; for estimated tissue concentration: patient HYDRA-005 for Itra, assuming 1 μg of tissue corresponds to 1 μl; for detection in tumour biopsies: post-treatment samples, ten patients, none of the pre-treatment samples
Experimental: Tumour assessment occurred every 8 weeks (+/−1 week) by CT scan. Toxicity was assessed by Common Terminology Criteria (CTCAE) version 4.0. Pre- and on treatment biopsies (on cycle 1, day 8 to 14) were mandatory. Tumour Itra and HCQ concentrations were determined by a HPLC-MS/MS method with itraconazole-D9 and hydroxychloroquine-D4 as the internal standard. The HPLC system was interfaced to a SCIEX TRIPLE QUAD 6500+ mass spectrometer operating in the […] electrospray ionization mode. Data collection, peak integration, and calculation were performed using Analyst® 1.7 software.

In the case of `CO/C1=C\C(C)=C\[C@@H](C)[C@@H](O)[C@@H](C)C/C(C)=C/C=C/[C@H](OC)[C@@H]([C@@H](C)[C@@H](O)[C@H](C)[C@@]2(O)C[C@@H](O)[C@H](C)[C@@H](C(C)C)O2)OC1=O` [Bafilomycin A], the “sensitivity of cell lines to itraconazole when treated with the agent” value [1] is reported as “increased sensitivity to itraconazole” and the “effect of Itra combined with lysosome targeting agent” value ([1]; data not shown) is reported as “combined effect”.

With `CCN(CC)CCCC(C)Nc1ccnc2cc(Cl)ccc12` (stereo not shown) [CQ, chloroquine] the “TFEB nuclear translocation, cells” value [2] was “about 50%”.

In the case of `CCN(CCO)CCCC(C)Nc1ccnc2cc(Cl)ccc12` (stereo not shown) [HCQ, hydroxychloroquine], the “intratumor concentration (highest)” value [3] is reported as 3.5 ng/mg of tissue, the estimated tissue concentration [3] is reported as 5 to 10 µM and the “detection in tumour biopsies” value [3] is reported as “detectable in all patients”.

With `CCC(C)n1ncn(-c2ccc(N3CCN(c4ccc(OCC5COC(Cn6cncn6)(c6ccc(Cl)cc6Cl)O5)cc4)CC3)cc2)c1=O` (stereo not shown) [Itra, Itraconazole] the “intratumor concentration (highest)” value [3] was 0.745 ng/mg of tissue, the estimated tissue concentration [3] was no more than 1 µM and the “detection in tumour biopsies” value [3] was “detectable in all patients”.

With `CC/C(=C(\c1ccccc1)c1ccc(OCCN(C)C)cc1)c1ccccc1` [tamoxifen] the “sensitivity of cell lines to itraconazole when treated with the agent” value [1] was “increased sensitivity to itraconazole”.
